Laboratory results as given in the supplement of paper PMC11061612.

Experiments:
Test in all cases: Bliss excess, mean over the matrix (fraction); higher = more synergy
[1] = tested on: COLO-680N (Esophageal Squamous Cell Carcinoma)
Procedure, shortened: (§1)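 Cell lines grown in DMEM/F12 or RPMI with 10% FBS were plated in 1536-well plates and held 24 hours at 37°C, 5% CO2 before 72 hours of exposure to two-drug dose matrices, with DMSO typically at 0.2%. CellTiter-Glo 2.0 luminescence gave viability, which was converted to inhibition. Vehicle wells were set to 0 and blank wells to 1. Combination Emax is the second-highest inhibition in the matrix, and Bliss excess is the observed combination effect minus the expected EA + EB − EA·EB, where EA and EB are the single-agent effects.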

[2] = tested on: 23132-87 (Gastric Carcinoma)
Procedure, shortened: as §1

[3] = tested on: RERF-LC-Sq1 (Squamous Cell Lung Carcinoma)
Procedure, shortened: as §1

[4] = tested on: LB996-RCC (Kidney Carcinoma)
Procedure, shortened: as §1

[5] = tested on: LN-229 (Glioblastoma)
Procedure, shortened: as §1

[6] = tested on: RERF-GC-1B (Gastric Carcinoma)
Procedure, shortened: as §1

[7] = tested on: VAL (B-Cell Non-Hodgkin's Lymphoma)
Procedure, shortened: as §1

[8] = tested on: NCI-H23 (Lung Adenocarcinoma)
Procedure, shortened: as §1

[9] = tested on: HEC-1 (Endometrial Carcinoma)
Procedure, shortened: as §1

[10] = tested on: GB-1 (Glioblastoma)
Procedure, shortened: as §1

[11] = tested on: CAL-120 (Breast Carcinoma)
Procedure, shortened: as §1

[12] = tested on: HSC-39 (Gastric Carcinoma)
Procedure, shortened: as §1

[13] = tested on: GP5d (Colorectal Carcinoma)
Procedure, shortened: as §1

[14] = tested on: MFE-280 (Endometrial Carcinoma)
Procedure, shortened: as §1

[15] = tested on: IST-MES1 (Mesothelioma)
Procedure, shortened: as §1

[16] = tested on: NCI-H2342 (Lung Adenocarcinoma)
Procedure, shortened: as §1

[17] = tested on: SU-DHL-10 (B-Cell Non-Hodgkin's Lymphoma)
Procedure, shortened: as §1

[18] = tested on: MKN45 (Gastric Carcinoma)
Procedure, shortened: as §1

[19] = tested on: RCM-1 (Colorectal Carcinoma)
Procedure, shortened: as §1

[20] = tested on: OAW-42 (Ovarian Carcinoma)
Procedure, shortened: as §1

SMILES | Bliss excess [1] | Bliss excess [2] | Bliss excess [3] | Bliss excess [4] | Bliss excess [5] | Bliss excess [6] | Bliss excess [7] | Bliss excess [8] | Bliss excess [9] | Bliss excess [10] | Bliss excess [11] | Bliss excess [12] | Bliss excess [13] | Bliss excess [14] | Bliss excess [15] | Bliss excess [16] | Bliss excess [17] | Bliss excess [18] | Bliss excess [19] | Bliss excess [20]
Cc1cc2ncnn2cc1Nc1ncc2c(n1)n(C1CCOCC1)c(=O)n2C [AZD7648] + O=C(c1cc(Cc2n[nH]c(=O)c3ccccc23)ccc1F)N1CCN(C(=O)C2CC2)CC1 [Olaparib] (first compound max 10 µM, 7x7, partner max 10 µM) | -0.0435 | 0.003 | -0.0095 | -0.0152 | -0.0816 | -0.076 | 0.0295 | -0.0059 | 0.0079 | -0.0227 | -0.0322 | -0.0083 | 0.0009 | -0.0011 | -0.0592 | -0.0548 | -0.0164 | -0.0106 | -0.0789 | 
COc1cccc2c1C(=O)c1c(O)c3c(c(O)c1C2=O)C[C@@](O)(C(=O)CO)C[C@@H]3O[C@H]1C[C@H](N)[C@H](O)[C@H](C)O1 [Doxorubicin] + Cc1cc2ncnn2cc1Nc1ncc2c(n1)n(C1CCOCC1)c(=O)n2C [AZD7648] (first compound max 1 µM, 7x7, partner max 10 µM) | 0.0063 | 0.049 | 0.0444 | 0.0561 | -0.0159 | -0.0142 | 0.0974 | 0.0413 | 0.004 | 0.0165 | 0.0064 | 0.0909 | 0.081 | 0.0107 | 0.0455 | 0.0128 | 0.0982 | 0.0162 | 0.0199 | 
CS(=O)(=O)CCNCc1ccc(-c2ccc3ncnc(Nc4ccc(OCc5cccc(F)c5)c(Cl)c4)c3c2)o1 [Lapatinib] + NC1(c2ccc(-c3nc4ccn5c(=O)[nH]nc5c4cc3-c3ccccc3)cc2)CCC1 [MK-2206] (first compound max 10 µM, 7x7, partner max 10 µM) | 0.0426 |  |  |  | -0.0959 | 0.0194 | -0.0147 | -0.0481 |  |  |  | 0.104 |  | -0.006 | 0.0433 | -0.0499 |  | -0.0466 | -0.0323 | -0.0089
COc1cccc(OCCCN)c1-c1cc(Nc2cnc(C#N)cn2)n[nH]1 [Prexasertib] + C=CCn1c(=O)c2cnc(Nc3ccc(N4CCN(C)CC4)cc3)nc2n1-c1cccc(C(C)(C)O)n1 [AZD1775] (first compound max 1 µM, partner max 1 µM) | -0.0054 | 0.0641 | 0.0621 | 0.0427 | -0.0177 | 0.049 | 0.0026 | 0.0334 | 0.109 | 0.0483 | 0.0551 | 0.05 | 0.035 | 0.176 | 0.127 | -0.0136 | 0.0558 | -0.0561 | -0.0248 | 
